{"source": "patent US20080275224A1", "about": "“Cyanoborate, Fluoroalkylphosphate, Fluoroalkylborate or Imide Dyes” (priority 2003, published 2008)", "key": {"[1]": {"assay": "Solubility investigations of the dyes prepared in accordance with Examples 31 to 34"}, "[2]": {"assay": "Solubility in organic solvents (statements in the description)"}, "physchem": {"assay": "physchem", "details": "water"}, "[3]": {"details": "acetonitrile, organic solvent or mixture, Solubility, CH3CN"}, "[4]": {"details": "dichloromethane, organic solvent or mixture, Solubility, CH2Cl2"}, "[5]": {"details": "ethanol, organic solvent or mixture, Solubility"}}}
{"smiles": "CN(C)c1ccc(C(=C2C=CC(=[N+](C)C)C=C2)c2ccc(N(C)C)cc2)cc1", "note": "[Crystal Violet [B(CF3)4]^−, Crystal Violet as tetrakis(trifluoromethyl)borate]", "values": [{"measurement": "solubility", "setting": "[1]; H2O", "result": "insoluble"}, {"measurement": "solubility", "setting": "[1]; Pentane", "result": "insoluble"}, {"measurement": "solubility", "setting": "[1]; [3]", "result": "> 5000", "unit": "µg/mL"}, {"measurement": "solubility", "setting": "[1]; [4]", "result": "> 10000", "unit": "µg/mL"}, {"measurement": "solubility", "setting": "[1]; [5]", "result": "> 10000", "unit": "µg/mL"}]}
{"smiles": "CCN(CC)c1ccc2nc3ccc(N=Nc4ccc(N(C)C)cc4)cc3[n+](-c3ccccc3)c2c1.[Cl-]", "note": "[Janus Green Cl^−, Janus Green, reference compound]", "values": [{"measurement": "Solubility in benzene", "setting": "[2]", "result": "insoluble"}]}
{"smiles": "CCN(CC)c1ccc2nc3ccc(/N=N/c4ccc(N(C)C)cc4)cc3[n+](-c3ccccc3)c2c1", "note": "[Janus Green [(CF3SO2)2N]^−]", "values": [{"measurement": "Solubility in benzene", "setting": "[2]", "result": "soluble"}]}
{"smiles": "CC[N+](CC)=c1ccc2nc3c(cc(N)c4ccccc43)oc-2c1", "note": "[Nile Blue Hydrogensulfate anion, Nile Blue hydrogensulfate, reference compound]", "values": [{"measurement": "Solubility in benzene", "setting": "[2]", "result": "insoluble"}, {"measurement": "Solubility in dimethyl carbonate", "setting": "[2]; listed as Nile Blue with hydrogensulfate as anion", "result": "insoluble"}]}
{"smiles": "CC[N+](CC)=c1ccc2nc3c(cc(N)c4ccccc43)oc-2c1", "note": "[Nile Blue [(C2F5)3PF3]^−] [Nile Blue as tris(pentafluoroethyl)trifluorophosphate]", "values": [{"measurement": "Solubility in benzene", "setting": "[2]; listed as Nile Blue FAP", "result": "soluble"}, {"measurement": "Solubility in dimethyl carbonate", "setting": "[2]; listed as Nile Blue FAP", "result": "readily or very readily soluble"}]}
{"smiles": "CC[N+](CC)=c1ccc2nc3c(cc(N)c4ccccc43)oc-2c1", "note": "[Nile Blue [(CF3SO2)2N]^−]", "values": [{"measurement": "Solubility in benzene", "setting": "[2]; listed as Nile Blue Im", "result": "soluble"}, {"measurement": "Solubility in dimethyl carbonate", "setting": "[2]; listed as Nile Blue Im", "result": "readily or very readily soluble"}]}
{"smiles": "CC[N+](CC)=c1ccc2nc3c(cc(N)c4ccccc43)oc-2c1", "note": "[Nile Blue [B(CF3)4]^−, Nile Blue as tetrakis(trifluoromethyl)borate]", "values": [{"measurement": "solubility", "setting": "[1]; Pentane", "result": "insoluble"}, {"measurement": "solubility", "setting": "[1]; [3]", "result": "> 2000", "unit": "µg/mL"}, {"measurement": "solubility", "setting": "[1]; [4]", "result": "> 5000", "unit": "µg/mL"}, {"measurement": "solubility", "setting": "[1]; [5]", "result": "> 3000", "unit": "µg/mL"}, {"measurement": "solubility", "setting": "[1]; water, Solubility, H2O", "result": "< 10", "unit": "µg/mL"}, {"measurement": "Solubility in benzene", "setting": "[2]; listed as Nile Blue FAB", "result": "soluble"}, {"measurement": "Solubility in dimethyl carbonate", "setting": "[2]; listed as Nile Blue FAB", "result": "readily or very readily soluble"}]}
{"smiles": "CC[N+](CC)=c1ccc2nc3c(cc(N)c4ccccc43)oc-2c1", "note": "[Nile Blue [B(CN)4]^−, Nile Blue as tetracyanoborate]", "values": [{"measurement": "Solubility in benzene", "setting": "[2]; listed as Nile Blue CAB", "result": "soluble"}, {"measurement": "Solubility in dimethyl carbonate", "setting": "[2]; listed as Nile Blue CAB", "result": "readily or very readily soluble"}]}
{"smiles": "Cc1cc2nc3cc(C)c(N)cc3[n+](-c3ccccc3)c2cc1N", "note": "[Safranine O [B(CF3)4]^−, safranine O as tetrakis(trifluoromethyl)borate]", "values": [{"measurement": "solubility", "setting": "physchem", "result": "< 10", "unit": "µg/mL"}]}
